Test results published in patent US20220202882A1, “EFFECT OF COMBINATION OF BIFIDOBACTERIUM AND BERBERINE ON PRE-DIABETES AND TYPE 2 DIABETES” (The Fourth Military Medical University, priority 2018, published 2022).
Counter-ions that a name gives are not always drawn.

Tested on: pre-diabetic and type 2 diabetes mellitus patients
Experiment: Clinical trial: fasting plasma glucose (FPG)
Format: in vivo, human
Settings: for Effect on fasting plasma glucose level (in words) / Post-treatment FPG - pre-treatment FPG, mean value: 16 weeks of treatment; for Effect on fasting plasma glucose level (in words): Kruskal-Wilcox test; for Post-treatment FPG - pre-treatment FPG, mean value / Post-treatment FPG, mean value / Pre-treatment FPG, mean value: FAS; for Post-treatment FPG, mean value: after 16 weeks of treatment; for Pre-treatment FPG, mean value: baseline before treatment
Experimental: From June 2015 to October 2018, a double-blind, randomized, and parallel-controlled trial, studying the effects of the combined use of Bifidobacterium and berberine on pre-diabetic and type 2 diabetes mellitus patients, was conducted in 10 research centers in Xi'an, Yan'an and Shangluo of Shaanxi province, etc., including the First Affiliated Hospital of the Fourth Military Medical University. 3) Diagnosed with impaired glucose tolerance or type 2 diabetes mellitus (5.6≤fasting plasma glucose (FPG)<8.0 mmol/L at V1 stage; 6.1≤fasting plasma glucose (FPG)<8.0<mmol/L or 7.8≤2-hour postprandial venous blood glucose (2 h-PPG)<17 mmol/L at V2 stage, please see V1 and V2 in Table 1 below); The trial included an enrollment stage of 2 weeks and a treatment stage of 16 weeks. After passing the first visit 1 (see V1 in Table 1), the subjects entered the enrollment stage, i.e., 2 weeks of lifestyle intervention, followed by a re-screening (see V2 in Table 1). The subjects were subjected to a 16-week course of treatment after passing the screening. See Table 1 for the detailed screening parameters. After the enrollment stage, the baseline data of the 300 successfully enrolled subjects were collected. Meanwhile, the subjects started to receive lifestyle guidance, and were randomly divided into four groups for 16 weeks of treatments. 1) Bifidobacterium group: the subjects were administered with Bifidobacterium capsules (Livzon Pharmaceutical Group Inc., batch no.: 20141013), 0.35 g/capsule, each capsule containing 50,000,000 viable bacteria (Bifidobacterium adolescentis DM8504), 2 capsules/time, 2 times/day, plus berberine placebo tablets (Northeast Pharma Group Shenyang First Pharma Co., Ltd., Lot no.: 20150101, containing 80.2% microcrystalline cellulose, 9.4% pregelatinized starch, 6.4% sodium carboxymethyl starch, 1% magnesium stearate, and 3% copovidone), 0.1 g/tablet, 5 tablets/time, 2 times/day. 2) Berberine group: the subjects were administered with berberine tablets (Northeast Pharma Group Shenyang First Pharma Co., Ltd., Lot no.: 130917, each tablet weighted 0.165 g and contained 0.1 g active berberine ingredient (berberine hydrochloride), with the same excipients as the placebo tablets), 5 tablets/time, 2 times/day, plus Bifidobacterium placebo capsules (Livzon Pharmaceutical Group Inc., Lot no.: 141001, specifically containing 0.348 g spray-dried lactose, and 0.002 g magnesium stearate), 0.35 g/capsule, 2 capsules/time, 2 times/day. 3) Combination Group: the subjects were administered with Bifidobacterium capsules, 0.35 g/capsule, each capsule containing 50,000,000 viable bacteria (B. adolescentis DM8504), 2 capsules/time, 2 times/day, plus berberine tablets, 0.1 g/tablet, each tablet containing 0.1 g active berberine ingredient (berberine hydrochloride), 5 tablets/time, 2 times/day. 4) Control group: the subjects were administered with Bifidobacteria placebo capsules, 0.35 g/capsule, 2 capsules/time, 2 times/day, plus berberine placebo tablets, 0.1 g/tablet, 5 tablets/time, 2 times/day. Bifidobacterium capsules were taken after meals and berberine tablets were taken before meals. After the sample testing was finished, 1) Chi-Squared test and t-test were used to evaluate the intergroup balance of the baseline data including the demographic characteristics and pre-treatment indicators, wherein the baseline data referred to those collected at the second visit, before the formal administration, the data collected at the first visit on the enrollment stage were used instead if the data at the second visit was lacking; 2) two-way disordered CM-CH11, Kruska-Wilcox test, etc. were used for analysis and intergroup comparison of pre- and post-treatment indicators such as fasting plasma glucose (FPG), HbA1c, plasma glucose at 2 hours post OGTT (2-h PPG), blood pressure, blood lipids, body weight and BMI; 3) adverse events and hypoglycemia events were described in terms of the type, frequency and relevance with the drugs, for safety evaluation. […]

Compound | Effect on fasting plasma glucose level (in words) | Post-treatment FPG - pre-treatment FPG, mean value | Post-treatment FPG, mean value | Pre-treatment FPG, mean value
Bifidobacterium | no evident effect | 0.0282 mmol/L | 6.4300 mmol/L | 6.4000 mmol/L
COc1ccc2cc3[n+](cc2c1OC)CCc1cc2c(cc1-3)OCO2 [Berberine, berberine hydrochloride] | lowered the fasting plasma glucose level significantly | -0.2450 mmol/L | 6.1300 mmol/L | 6.4700 mmol/L
